Key:
[1] = target: T1, Ubiquitin carboxyl-terminal hydrolase 4 (Homo sapiens, UniProt Q13107); assay: Inhibition of USP4 in human U2OS using Ub-TAMRA substrate by Ub-Rhodamine fluorescent intensity assay; type: cell-based
T1 sequence (Q13107 whole entry): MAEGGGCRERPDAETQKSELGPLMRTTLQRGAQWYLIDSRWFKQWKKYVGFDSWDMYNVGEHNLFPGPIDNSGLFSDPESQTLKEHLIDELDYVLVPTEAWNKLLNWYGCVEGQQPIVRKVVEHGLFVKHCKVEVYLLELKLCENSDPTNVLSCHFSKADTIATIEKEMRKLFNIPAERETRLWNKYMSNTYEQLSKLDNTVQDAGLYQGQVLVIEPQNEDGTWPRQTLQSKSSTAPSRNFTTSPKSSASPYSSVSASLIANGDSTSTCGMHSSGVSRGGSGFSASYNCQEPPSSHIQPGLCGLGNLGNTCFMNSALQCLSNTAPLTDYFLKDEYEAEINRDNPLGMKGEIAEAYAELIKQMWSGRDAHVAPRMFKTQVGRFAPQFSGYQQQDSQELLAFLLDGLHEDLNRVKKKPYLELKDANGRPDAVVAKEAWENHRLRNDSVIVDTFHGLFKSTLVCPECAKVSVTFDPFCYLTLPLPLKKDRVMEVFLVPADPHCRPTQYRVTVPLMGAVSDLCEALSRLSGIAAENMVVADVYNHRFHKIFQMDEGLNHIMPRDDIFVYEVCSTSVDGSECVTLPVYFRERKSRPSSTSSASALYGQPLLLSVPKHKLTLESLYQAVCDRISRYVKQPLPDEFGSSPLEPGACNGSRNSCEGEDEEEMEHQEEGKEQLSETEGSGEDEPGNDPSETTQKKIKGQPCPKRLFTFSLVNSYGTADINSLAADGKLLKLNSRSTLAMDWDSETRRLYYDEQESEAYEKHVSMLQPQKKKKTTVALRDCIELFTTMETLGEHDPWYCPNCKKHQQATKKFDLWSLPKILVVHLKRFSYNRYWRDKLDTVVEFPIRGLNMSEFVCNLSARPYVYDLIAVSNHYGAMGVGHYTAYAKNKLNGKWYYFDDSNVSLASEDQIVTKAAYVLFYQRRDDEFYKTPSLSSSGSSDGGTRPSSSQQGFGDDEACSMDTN

[2] = target: Ubiquitin carboxyl-terminal hydrolase 7 (Homo sapiens, UniProt Q93009); assay: Inhibition of USP7 in human U2OS using Ub-TAMRA substrate by Ub-Rhodamine fluorescent intensity assay; type: cell-based
[3] = target: T2, STAM-binding protein (Homo sapiens, UniProt O95630); assay: Inhibition of human STAMBP expressed in Sf21 cells pre-incubated for 20 mins before Ubiquitinated NALP7 substrate addition and measured after 1 hr by immunoblotting analysis
T2 sequence (O95630 whole entry): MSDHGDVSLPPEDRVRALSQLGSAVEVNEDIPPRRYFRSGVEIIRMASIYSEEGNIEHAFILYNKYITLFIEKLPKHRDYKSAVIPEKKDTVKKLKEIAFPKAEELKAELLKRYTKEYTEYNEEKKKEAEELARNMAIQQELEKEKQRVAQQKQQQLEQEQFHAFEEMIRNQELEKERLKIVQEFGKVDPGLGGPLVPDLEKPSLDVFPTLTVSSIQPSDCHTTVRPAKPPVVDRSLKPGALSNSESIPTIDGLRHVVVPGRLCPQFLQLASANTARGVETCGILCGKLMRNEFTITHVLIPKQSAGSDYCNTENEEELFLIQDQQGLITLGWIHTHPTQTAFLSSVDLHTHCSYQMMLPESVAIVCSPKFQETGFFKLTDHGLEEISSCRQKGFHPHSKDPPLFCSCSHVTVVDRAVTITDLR

[4] = tested on: HCT-116; assay: Cytotoxicity in human HCT116 cells assessed as reduction in cell viability incubated for 72 hrs by FMCA analysis; type: functional, cell-based; conditions: HCT-116, 72 h
[5] = Inhibition of 26S proteasome (unknown origin) incubated for 2 hrs by proteasome Ub-Rho cleavage assay; parameters: species or system Homo sapiens

Sequence of Ubiquitin carboxyl-terminal hydrolase 7 (Q93009 whole entry): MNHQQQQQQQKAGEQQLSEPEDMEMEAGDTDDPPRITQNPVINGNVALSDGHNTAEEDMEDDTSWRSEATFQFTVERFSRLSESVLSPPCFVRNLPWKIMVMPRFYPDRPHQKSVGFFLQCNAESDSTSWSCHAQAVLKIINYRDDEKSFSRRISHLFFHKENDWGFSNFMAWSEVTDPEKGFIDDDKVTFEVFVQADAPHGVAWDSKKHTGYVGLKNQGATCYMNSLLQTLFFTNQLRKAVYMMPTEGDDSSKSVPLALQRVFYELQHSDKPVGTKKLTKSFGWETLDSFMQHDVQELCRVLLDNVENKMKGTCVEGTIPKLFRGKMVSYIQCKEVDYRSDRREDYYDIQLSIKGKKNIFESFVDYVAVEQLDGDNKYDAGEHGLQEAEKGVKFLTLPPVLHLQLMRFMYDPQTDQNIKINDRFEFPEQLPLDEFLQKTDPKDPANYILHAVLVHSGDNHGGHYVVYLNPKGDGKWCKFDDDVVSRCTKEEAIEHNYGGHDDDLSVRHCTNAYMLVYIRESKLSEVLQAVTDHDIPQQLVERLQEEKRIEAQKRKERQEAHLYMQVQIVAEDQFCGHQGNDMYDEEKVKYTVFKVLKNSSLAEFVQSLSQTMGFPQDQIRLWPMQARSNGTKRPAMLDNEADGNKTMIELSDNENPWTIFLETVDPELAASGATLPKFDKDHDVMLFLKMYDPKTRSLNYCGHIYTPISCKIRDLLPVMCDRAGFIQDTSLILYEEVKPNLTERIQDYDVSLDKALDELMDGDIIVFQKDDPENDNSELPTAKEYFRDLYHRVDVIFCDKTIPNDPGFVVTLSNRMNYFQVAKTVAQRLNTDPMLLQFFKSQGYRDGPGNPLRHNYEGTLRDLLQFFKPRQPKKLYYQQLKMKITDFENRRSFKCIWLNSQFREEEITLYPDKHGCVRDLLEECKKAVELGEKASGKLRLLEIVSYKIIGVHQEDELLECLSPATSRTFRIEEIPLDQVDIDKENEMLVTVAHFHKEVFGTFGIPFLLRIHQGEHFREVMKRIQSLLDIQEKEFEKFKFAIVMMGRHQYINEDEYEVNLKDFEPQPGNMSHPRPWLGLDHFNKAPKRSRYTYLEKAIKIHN

SMILES	IC50 [1]	IC50 [2]	IC50 [3]	EC50 [4]	EC50 [5]
C#Cc1ccc(CNC(=O)c2cc(C(=O)CCl)cn2C)cc1	0.05 µM	44 µM	–	–	–
O=C(CSc1nc2ccc(N3CCOCC3)cc2c(=O)n1CCc1ccccc1)NCc1ccco1	–	–	0.33 µM	–	–
C=CC(=O)N1C/C(=C\c2ccc([N+](=O)[O-])cc2)C(=O)/C(=C/c2ccc([N+](=O)[O-])cc2)C1	–	–	–	1.05 µM	6.5 µM
C=CC(=O)N1CC/C(=C\c2ccc(F)c([N+](=O)[O-])c2)C(=O)/C(=C/c2ccc(F)c([N+](=O)[O-])c2)C1	–	–	–	0.58 µM	6.4 µM
